Measured values as given in PMC12865480 (Pharmaceuticals, 2025).
Where “and” joins values, the source holds several entries; their conditions need not be identical. Equal entries are not always repeated. Where two headings read alike, the source gives them in different places.

How the values were obtained:
σ2 receptor = target: T1, σ2 receptor (Rattus norvegicus, UniProt Q5U3Y7); test: biochemical; type: binding; details: read-out: Ki ± SEM σ2
T1 sequence (Q5U3Y7 1-176): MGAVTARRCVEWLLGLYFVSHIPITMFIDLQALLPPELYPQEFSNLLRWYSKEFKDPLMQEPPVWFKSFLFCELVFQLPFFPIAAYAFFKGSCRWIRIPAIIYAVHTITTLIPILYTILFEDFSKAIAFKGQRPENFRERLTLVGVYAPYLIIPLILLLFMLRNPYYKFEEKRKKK

[1] = target: PCP binding site of the NMDA receptor; test: PCP binding site assay, radioligand [3H](+)-MK-801, pig brain preparations; details: n = 3, values without SEM mean of two experiments
[2] = target: T2, ifenprodil binding site of NMDA receptors with GluN2B subunit (Homo sapiens, UniProt Q05586+Q13224); test: biochemical
T2 construct: expressed in transfected cells; host or cells: mouse L(tk-) cells, stably transfected, expression induced with dexamethasone; membrane homogenate
T2 sequence (Q13224 27-1484, other chains not shown): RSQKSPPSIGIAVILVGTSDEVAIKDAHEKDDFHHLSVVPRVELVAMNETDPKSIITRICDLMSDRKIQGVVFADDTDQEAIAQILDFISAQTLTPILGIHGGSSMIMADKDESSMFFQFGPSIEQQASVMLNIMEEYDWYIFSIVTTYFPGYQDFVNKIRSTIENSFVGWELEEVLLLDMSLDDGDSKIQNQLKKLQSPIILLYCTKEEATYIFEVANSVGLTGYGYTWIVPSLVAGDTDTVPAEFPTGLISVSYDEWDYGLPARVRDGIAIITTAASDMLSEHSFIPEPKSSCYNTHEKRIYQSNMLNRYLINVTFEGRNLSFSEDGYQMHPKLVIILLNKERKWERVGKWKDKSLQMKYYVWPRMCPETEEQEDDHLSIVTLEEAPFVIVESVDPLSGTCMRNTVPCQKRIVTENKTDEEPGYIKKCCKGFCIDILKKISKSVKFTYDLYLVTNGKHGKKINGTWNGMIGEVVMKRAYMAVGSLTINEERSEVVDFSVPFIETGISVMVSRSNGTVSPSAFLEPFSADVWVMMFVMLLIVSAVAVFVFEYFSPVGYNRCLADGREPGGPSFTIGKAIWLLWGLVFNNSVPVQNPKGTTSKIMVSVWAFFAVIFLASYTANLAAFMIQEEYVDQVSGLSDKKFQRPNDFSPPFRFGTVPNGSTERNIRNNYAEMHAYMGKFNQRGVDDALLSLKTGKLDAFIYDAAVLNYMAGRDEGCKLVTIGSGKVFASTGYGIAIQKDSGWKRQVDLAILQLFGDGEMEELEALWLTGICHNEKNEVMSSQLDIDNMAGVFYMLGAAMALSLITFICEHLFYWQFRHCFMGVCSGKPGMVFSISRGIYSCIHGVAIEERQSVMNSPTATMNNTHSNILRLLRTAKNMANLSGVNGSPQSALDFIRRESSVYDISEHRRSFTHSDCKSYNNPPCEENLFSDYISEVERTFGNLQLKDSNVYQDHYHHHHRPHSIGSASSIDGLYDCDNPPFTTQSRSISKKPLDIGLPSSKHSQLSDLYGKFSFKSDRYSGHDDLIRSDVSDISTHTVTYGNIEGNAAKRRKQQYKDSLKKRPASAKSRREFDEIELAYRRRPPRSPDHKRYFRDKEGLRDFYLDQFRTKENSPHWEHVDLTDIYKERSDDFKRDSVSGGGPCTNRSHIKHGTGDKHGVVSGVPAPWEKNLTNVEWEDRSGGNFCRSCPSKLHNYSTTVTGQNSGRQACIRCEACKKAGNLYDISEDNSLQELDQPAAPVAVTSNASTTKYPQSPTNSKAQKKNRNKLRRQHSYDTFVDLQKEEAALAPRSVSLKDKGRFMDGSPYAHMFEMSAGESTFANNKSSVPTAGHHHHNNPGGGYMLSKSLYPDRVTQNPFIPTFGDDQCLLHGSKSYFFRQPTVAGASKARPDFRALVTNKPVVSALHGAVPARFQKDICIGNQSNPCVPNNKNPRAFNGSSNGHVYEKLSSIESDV

µ-opioid receptor = µ-opioid receptor (Cavia porcellus, UniProt A0ACM8Q262); test: µ-opioid receptor binding study; details: read-out: inhibition of the radioligand binding, µ receptor
µ-opioid receptor, sequence (A0ACM8Q262 1-400): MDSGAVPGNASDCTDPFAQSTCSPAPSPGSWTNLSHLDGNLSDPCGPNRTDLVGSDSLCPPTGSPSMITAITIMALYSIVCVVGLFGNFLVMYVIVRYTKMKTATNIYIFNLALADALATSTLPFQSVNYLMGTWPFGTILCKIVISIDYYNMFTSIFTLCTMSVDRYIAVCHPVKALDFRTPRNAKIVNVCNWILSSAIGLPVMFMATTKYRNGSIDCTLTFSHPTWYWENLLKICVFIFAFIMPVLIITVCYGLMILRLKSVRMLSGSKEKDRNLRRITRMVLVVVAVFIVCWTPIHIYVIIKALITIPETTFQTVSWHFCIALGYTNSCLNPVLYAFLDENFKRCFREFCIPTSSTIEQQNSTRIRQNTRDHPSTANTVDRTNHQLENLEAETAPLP

κ-opioid receptor = κ-opioid receptor (Cavia porcellus, UniProt P41144); test: κ-opioid receptor binding study; details: read-out: inhibition of the radioligand binding, κ receptor
κ-opioid receptor, sequence (P41144 whole entry): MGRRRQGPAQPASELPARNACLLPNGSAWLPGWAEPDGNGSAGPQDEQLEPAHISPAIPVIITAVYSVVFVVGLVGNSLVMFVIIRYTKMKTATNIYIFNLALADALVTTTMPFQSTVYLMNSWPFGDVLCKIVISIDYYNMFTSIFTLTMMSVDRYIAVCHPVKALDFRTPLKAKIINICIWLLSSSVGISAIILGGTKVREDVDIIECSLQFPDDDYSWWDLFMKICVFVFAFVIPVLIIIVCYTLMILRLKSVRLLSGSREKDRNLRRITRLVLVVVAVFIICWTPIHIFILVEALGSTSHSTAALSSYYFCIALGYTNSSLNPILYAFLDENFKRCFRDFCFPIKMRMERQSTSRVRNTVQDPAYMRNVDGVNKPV

δ-opioid receptor = δ-opioid receptor (Rattus norvegicus, UniProt P33533); test: δ-opioid receptor binding study; details: read-out: inhibition of the radioligand binding, δ receptor
δ-opioid receptor, sequence (P33533 whole entry): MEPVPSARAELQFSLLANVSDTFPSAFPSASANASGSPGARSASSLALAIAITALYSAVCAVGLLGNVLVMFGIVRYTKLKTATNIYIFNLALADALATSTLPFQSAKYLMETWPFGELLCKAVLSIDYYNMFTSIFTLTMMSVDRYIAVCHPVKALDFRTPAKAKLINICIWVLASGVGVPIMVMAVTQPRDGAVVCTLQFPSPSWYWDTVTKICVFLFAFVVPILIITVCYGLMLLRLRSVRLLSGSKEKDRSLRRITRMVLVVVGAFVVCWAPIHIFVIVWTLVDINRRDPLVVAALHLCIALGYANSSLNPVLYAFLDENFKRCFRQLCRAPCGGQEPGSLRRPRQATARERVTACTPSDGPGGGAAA

σ1 receptor [3] = target: T3, σ1 receptor (Cavia porcellus, UniProt Q60492); details: for σ1:σ2 receptor selectivity: σ1 over σ2
T3 sequence (Q60492 whole entry): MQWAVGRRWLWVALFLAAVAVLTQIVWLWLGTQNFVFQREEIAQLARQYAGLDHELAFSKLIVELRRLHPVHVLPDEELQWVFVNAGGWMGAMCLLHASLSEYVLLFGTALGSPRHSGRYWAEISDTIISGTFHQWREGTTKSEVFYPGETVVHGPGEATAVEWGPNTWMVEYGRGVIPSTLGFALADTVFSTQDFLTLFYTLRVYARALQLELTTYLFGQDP

[4] = after 90 min incubation with mouse liver microsomes and NADPH
physchem = details: pH 7.4
σ1 receptor [5] = target: T3, σ1 receptor; test: biochemical
σ1 receptor [6] = target: T3, σ1 receptor; details: earlier study; cited from earlier work
[7] = target: PCP binding site of the NMDA receptor; details: earlier study; cited from earlier work
[8] = test system: capsaicin mouse model of neuropathic pain; details: dose of 0.25 mg/kg body weight; cited from earlier work

Compound: CC[C@]1(c2ccccc2)OCC[C@H](CCCCN(C)Cc2ccccc2)O1 (relative stereo) [18b, N-Benzyl-4-(trans-2-ethyl-2-phenyl-1,3-dioxan-4-yl)-N-methyl-butan-1-amine]
- Ki (σ2 receptor): 24 ± 6.3 nM
- Ki [1]: > 1000 nM
- Ki [2]: 20 ± 3.3 nM
- inhibition at 1 µM (µ-opioid receptor): 0%
- inhibition at 1 µM (κ-opioid receptor): 0%
- inhibition at 1 µM (δ-opioid receptor): 0%
- LLE (ligand-lipophilicity efficiency) (σ1 receptor [3]): 4.52
- σ1:σ2 receptor selectivity (σ1 receptor [3]): 3 fold
- Metabolic Stability (5): amount of the remaining unmetabolized parent compound [4]: 36% and 36 ± 1%
- logD (physchem): 3.54 ± 0.06
- Ki (σ1 receptor [5]; Ki ± SEM σ1): 8.7 ± 3.6 nM
- Ki (σ1 receptor [5]; pKi(σ1)): 8.71 nM

Compound: NCCCC[C@H]1CCO[C@@H](c2ccccc2)O1 (relative stereo) [14a, 4-(cis-2-Phenyl-1,3-dioxan-4-yl)butan-1-amine]
- Ki (σ2 receptor): > 1000 nM
- Ki [1]: > 1000 nM
- Ki ([2]; read-out: Ki ± SEM GluN2B): > 1000 nM
- IC50 (σ1 receptor [5]): > 1000 nM
- Ki (σ1 receptor [5]; Ki ± SEM σ1): > 1000 nM

Compound: CN(CCCC[C@H]1CCO[C@@H](c2ccccc2)O1)Cc1ccccc1 (relative stereo) [18a, N-Benzyl-N-methyl-4-(cis-2-phenyl-1,3-dioxan-4-yl)butan-1-amine]
- Ki (σ2 receptor): 31 ± 3.1 nM
- Ki [1]: > 1000 nM
- Ki ([2]; read-out: Ki ± SEM GluN2B): 261 ± 54 nM
- inhibition at 1 µM (µ-opioid receptor): 0%
- inhibition at 1 µM (κ-opioid receptor): 0%
- inhibition at 1 µM (δ-opioid receptor): 0%
- LLE (ligand-lipophilicity efficiency) (σ1 receptor [3]): 5.71
- selectivity for the σ1 receptor against the ifenprodil binding site (σ1 receptor [3]): > 40 fold
- σ1:σ2 receptor selectivity (σ1 receptor [3]): 5 fold
- Metabolic Stability (5): amount of the remaining unmetabolized parent compound [4]: 48 ± 4%
- logD (physchem): 2.49 ± 0.05
- Ki (σ1 receptor [5]; Ki ± SEM σ1): 6.3 ± 2.4 nM
- Ki (σ1 receptor [5]; pKi(σ1)): 6.31 nM

Compound: c1ccc(CNCCC2CCCC(c3ccccc3)O2)cc1 (stereo not shown) [compound 3]
- Ki (σ1 receptor [6]): 6.4 nM

Compound: CC[C@]1(c2ccccc2)OCC[C@H](CCCCNC)O1 (relative stereo) [16b, 4-(trans-2-Ethyl-2-phenyl-1,3-dioxan-4-yl)-N-methylbutan-1-amine]
- Ki (σ2 receptor): 311 nM
- Ki [1]: > 1000 nM
- Ki ([2]; read-out: Ki ± SEM GluN2B): > 1000 nM
- Ki (σ1 receptor [5]; Ki ± SEM σ1): 107 ± 5 nM

Compound: CCC1(c2ccccc2)OCCC(CCNCc2ccccc2)O1 (stereo not shown) [2b]
- Ki (σ1 receptor [6]): 27 nM

Compound: CC[C@]1(c2ccccc2)OC[C@H]([C@@H]2CCCCN2)O1 [etoxadrol]
- Ki [7]: 22 nM

Compound: c1ccc(CNCCCC[C@H]2CCO[C@@H](c3ccccc3)O2)cc1 (relative stereo) [17a, N-Benzyl-4-(cis-2-phenyl-1,3-dioxan-4-yl)butan-1-amine]
- Ki (σ2 receptor): 213 nM
- Ki [1]: > 1000 nM
- Ki ([2]; read-out: Ki ± SEM GluN2B): > 1000 nM
- inhibition at 1 µM (µ-opioid receptor): 3%
- inhibition at 1 µM (κ-opioid receptor): 0%
- LLE (ligand-lipophilicity efficiency) (σ1 receptor [3]): 6.19
- selectivity for the σ1 receptor against the ifenprodil binding site (σ1 receptor [3]): > 30 fold
- selectivity for the σ1 receptor over δ-opioid receptors (σ1 receptor [3]; σ1 over δ-opioid receptor): 9 fold
- σ1:σ2 receptor selectivity (σ1 receptor [3]): approx. 7 fold
- Metabolic Stability (5): amount of the remaining unmetabolized parent compound [4]: 56% and 56 ± 3%
- logD (physchem): 1.32 ± 0.04
- Ki (σ1 receptor [5]; Ki ± SEM σ1): 31 ± 4 nM
- Ki (σ1 receptor [5]; pKi(σ1)): 30.9 nM

Compound: CCC1(c2ccccc2)OCCC(CCCC(NC)c2ccccc2)O1 (stereo not drawn) [25b, 4-(trans-2-Ethyl-2-phenyl-1,3-dioxan-4-yl)-N-methyl-1-phenylbutan-1-amine]
- Ki (σ2 receptor): 255 nM
- Ki [1]: > 1000 nM
- Ki ([2]; read-out: Ki ± SEM GluN2B): 190 ± 39 nM
- Ki (σ1 receptor [5]; Ki ± SEM σ1): 58 ± 8.2 nM

Compound: CCC1(c2ccccc2)OCCC(CCCC(N)c2ccccc2)O1 (stereo not drawn) [24b, 4-(trans-2-Ethyl-2-phenyl-1,3-dioxan-4-yl)-1-phenylbutan-1-amine]
- Ki (σ2 receptor): 170 nM
- Ki [1]: 524 nM
- Ki ([2]; read-out: Ki ± SEM GluN2B): 136 ± 36 nM
- Ki (σ1 receptor [5]; Ki ± SEM σ1): 427 nM

Compound: CCC1(c2ccccc2)OCCC(CCCC(c2ccccc2)N2CCCC2)O1 (stereo not drawn) [27b, 1-[4-(trans-2-Ethyl-2-phenyl-1,3-dioxan-4-yl)-1-phenylbutyl]pyrrolidine]
- Ki (σ2 receptor): 64 ± 15 nM
- Ki [1]: > 1000 nM
- Ki [2]: 63 ± 20 nM
- LLE (ligand-lipophilicity efficiency) (σ1 receptor [3]): 4.39
- Metabolic Stability (5): amount of the remaining unmetabolized parent compound [4]: 55 ± 5%
- logD (physchem): 3.33 ± 0.08
- Ki (σ1 receptor [5]; Ki ± SEM σ1): 19 ± 0.6 nM
- Ki (σ1 receptor [5]; pKi(σ1)): 19.1 nM

Compound: CC[C@]1(c2ccccc2)OCC[C@H](CCCCNCc2ccccc2)O1 (relative stereo) [17b, N-Benzyl-4-(trans-2-ethyl-2-phenyl-1,3-dioxan-4-yl)butan-1-amine]
- Ki (σ2 receptor): 22 ± 1.9 nM
- Ki [1]: 569 ± 141 nM
- Ki [2]: 39 ± 13 nM
- inhibition at 1 µM (κ-opioid receptor): 0%
- LLE (ligand-lipophilicity efficiency) (σ1 receptor [3]): 5.20
- Metabolic Stability (5): amount of the remaining unmetabolized parent compound [4]: 50 ± 4%
- logD (physchem): 2.65 ± 0.04
- Ki (σ1 receptor [5]; Ki ± SEM σ1): 14 ± 6.1 nM
- Ki (σ1 receptor [5]; pKi(σ1)): 14.1 nM

Compound: CCC1(c2ccccc2)OCCC(CCN)O1 (stereo not shown) [2a]
- Ki (σ1 receptor [6]): 955 nM
- Ki [7]: 19 nM

Compound: c1ccc(CNCCC2CCOC(c3ccccc3)O2)cc1 (stereo not shown) [compound 1]
- analgesic activity [8]: 70%

Compound: CCC1(c2ccccc2)OCCC(CCCC(NCc2ccccc2)c2ccccc2)O1 (stereo not drawn) [26b, N-Benzyl-4-(trans-2-ethyl-2-phenyl-1,3-dioxan-4-yl)-1-phenylbutan-1-amine]
- Ki (σ2 receptor): 139 nM
- Ki [1]: > 1000 nM
- Ki ([2]; read-out: Ki ± SEM GluN2B): 257 ± 57 nM
- Ki (σ1 receptor [5]; Ki ± SEM σ1): 88 ± 43 nM

Compound: CC[C@]1(c2ccccc2)OCC[C@H](CCCCN)O1 (relative stereo) [14b, 4-(trans-2-Ethyl-2-phenyl-1,3-dioxan-4-yl)butan-1-amine]
- Ki (σ2 receptor): > 1000 nM
- Ki [1]: 731 nM
- Ki ([2]; read-out: Ki ± SEM GluN2B): > 1000 nM
- IC50 (σ1 receptor [5]): > 1000 nM
- Ki (σ1 receptor [5]; Ki ± SEM σ1): > 1000 nM

Compound: c1ccc([C@@H]2OCC[C@H](CCCCN3CCCC3)O2)cc1 (relative stereo) [19a, 1-[4-(cis-2-Phenyl-1,3-dioxan-4-yl)butyl]pyrrolidine]
- Ki (σ2 receptor): > 1000 nM
- Ki [1]: > 1000 nM
- Ki ([2]; read-out: Ki ± SEM GluN2B): > 1000 nM
- LLE (ligand-lipophilicity efficiency) (σ1 receptor [3]): 6.72
- Metabolic Stability (5): amount of the remaining unmetabolized parent compound [4]: 55% and 55 ± 2%
- logD (physchem): 0.09 ± 0.05
- Ki (σ1 receptor [5]; Ki ± SEM σ1): 154 ± 8 nM
- Ki (σ1 receptor [5]; pKi(σ1)): 155 nM

Compound: c1ccc(CNC(CCC[C@H]2CCO[C@@H](c3ccccc3)O2)c2ccccc2)cc1 (relative stereo) [26a, N-Benzyl-1-phenyl-4-(cis-2-phenyl-1,3-dioxan-4-yl)butan-1-amine]
- Ki (σ2 receptor): 907 nM
- Ki [1]: > 1000 nM
- Ki ([2]; read-out: Ki ± SEM GluN2B): > 1000 nM
- Ki (σ1 receptor [5]; Ki ± SEM σ1): 918 nM

Compound: CNC(CCC[C@H]1CCO[C@@H](c2ccccc2)O1)c1ccccc1 (relative stereo) [25a, N-Methyl-1-phenyl-4-(cis-2-phenyl-1,3-dioxan-4-yl)butan-1-amine]
- Ki (σ2 receptor): > 1000 nM
- Ki [1]: > 1000 nM
- Ki ([2]; read-out: Ki ± SEM GluN2B): 716 nM
- Ki (σ1 receptor [5]; Ki ± SEM σ1): 144 ± 26 nM

Compound: CC[C@]1(c2ccccc2)OCC[C@H](CCCCN2CCCC2)O1 (relative stereo) [19b, 1-[4-(trans-2-Ethyl-2-phenyl-1,3-dioxan-4-yl)butyl]pyrrolidine]
- Ki (σ2 receptor): 57 ± 1.9 nM
- Ki [1]: > 1000 nM
- Ki [2]: 67 ± 18 nM
- LLE (ligand-lipophilicity efficiency) (σ1 receptor [3]): 5.96
- Metabolic Stability (5): amount of the remaining unmetabolized parent compound [4]: 62 ± 2%
- logD (physchem): 1.29 ± 0.05
- Ki (σ1 receptor [5]; Ki ± SEM σ1): 56 ± 19 nM
- Ki (σ1 receptor [5]; pKi(σ1)): 56.2 nM

Compound: NC(CCC[C@H]1CCO[C@@H](c2ccccc2)O1)c1ccccc1 (relative stereo) [24a, 1-Phenyl-4-(cis-2-phenyl-1,3-dioxan-4-yl)butan-1-amine]
- Ki [1]: > 1000 nM
- Ki ([2]; read-out: Ki ± SEM GluN2B): 1350 nM
- Ki (σ1 receptor [5]; Ki ± SEM σ1): > 1000 nM

Compound: CNCCCC[C@H]1CCO[C@@H](c2ccccc2)O1 (relative stereo) [16a, N-Methyl-4-(cis-2-phenyl-1,3-dioxan-4-yl)butan-1-amine]
- Ki (σ2 receptor): > 1000 nM
- Ki [1]: > 1000 nM
- Ki ([2]; read-out: Ki ± SEM GluN2B): > 1000 nM
- Ki (σ1 receptor [5]; Ki ± SEM σ1): 842 nM

Compound: c1ccc(CNCCCC2CCOC(c3ccccc3)O2)cc1 (stereo not shown) [compound 4]
- Ki (σ1 receptor [6]): 164 nM

Compound: c1ccc(C(CCC[C@H]2CCO[C@@H](c3ccccc3)O2)N2CCCC2)cc1 (relative stereo) [27a, 1-[1-Phenyl-4-(cis-2-phenyl-1,3-dioxan-4-yl)butyl]pyrrolidine]
- Ki (σ2 receptor): > 1000 nM
- Ki [1]: > 1000 nM
- Ki ([2]; read-out: Ki ± SEM GluN2B): 366 nM
- LLE (ligand-lipophilicity efficiency) (σ1 receptor [3]): 4.59
- Metabolic Stability (5): amount of the remaining unmetabolized parent compound [4]: 76% and 76 ± 3%
- logD (physchem): 2.2 ± 0.07
- Ki (σ1 receptor [5]; Ki ± SEM σ1): 161 ± 59 nM
- Ki (σ1 receptor [5]; pKi(σ1)): 162 nM
